Where a name gives a salt, the structure may show the parent alone.
target: T1, human Nav1.8 (hNav1.8) ion channel (Homo sapiens, UniProt Q9Y5Y9); assay: Inhibition of human Nav1.8 stably expressed in SH-SY-5Y cells (membrane potential dye fluorescence assay); type: cell-based; settings: SH-SY-5Y hNav1.8 cells; FLIPR membrane potential dye; 10 μM pyrethroid, 250 nM TTX; test concentration range 100 μM-0.05 μM; read-out: hNav1.8 IC50
T1 construct: expressed in transfected cells
Description: Inhibition of Human Nav1.8 stably expressed in SH-SY-5Y Cells
A SH-SY-5Y neuroblastoma cell line stably expressing the human Nav1.8 (hNav1.8) ion channel was constructed. This cell line has been used to develop a medium to high throughput assay for determining the ability of test compounds to inhibit membrane depolarisation mediated via the hNav1.8 channel.
SH-SY-5Y hNav1.8 are grown in adherent monolayer culture using 50:50 Ham's F-12/EMEM tissue culture medium supplemented with 15% (v/v) foetal bovine serum; 2 mM L-glutamine, 1% NEAR and 600 μg·ml^−1 Geneticin sulphate. Cells are removed from the tissue culture flask using trypsin/EDTA and re-plated into black walled, clear bottom 96-well assay plates at 50,000 cells·well^−1 24 hours prior to assay.
On the day of assay the cell assay plates are washed to remove cell culture medium using a sodium free assay buffer (145 mM tetramethyl ammonium chloride; 2 mM calcium chloride; 0.8 mM magnesium chloride hexahydrate; 10 mM HEPES; 10 mM glucose; 5 mM potassium chloride, pH 7.4). Fluorescent membrane potential dye solution (FLIPR™ membrane potential dye, Molecular Devices Corporation), containing 10 μM of a pyrethroid to prevent channel inactivation and 250 nM tetrodotoxin (TTX) to reduce interference from TTX-sensitive sodium channels present in the cell line. Test compound, initially dissolved in dimethyl sulfoxide but further diluted in sodium free buffer, is added to achieve the final test concentration range of 100 μM-0.05 μM.
Cell plates are incubated for 30 minutes at room temperature to allow equilibration of dye and test compound. Plates are then transferred to a fluorescence plate reader for fluorescence measurement using an excitation wavelength of 530 nm whilst measuring fluorescence emission at 565 nm. Baseline fluorescence levels are first determined before the addition of a sodium containing buffer (220 mM sodium chloride; 2 mM calcium chloride; 0.8 mM magnesium chloride hexahydrate; 10 mM HEPES; 10 mM glucose; 5 mM potassium chloride. pH 7.4) to cause membrane depolarisation in those cells where channel block has not been effected (final sodium concentration=72.5 mM). Membrane depolarisation is registered by an increase in fluorescence emission at 565 nm.
The change in fluorescence seen in each test well upon the addition of sodium containing buffer is calculated relative to the baseline fluorescence for that well. This figure is then used for calculating the IC50 for each test compound.

T1 sequence (Q9Y5Y9 whole entry): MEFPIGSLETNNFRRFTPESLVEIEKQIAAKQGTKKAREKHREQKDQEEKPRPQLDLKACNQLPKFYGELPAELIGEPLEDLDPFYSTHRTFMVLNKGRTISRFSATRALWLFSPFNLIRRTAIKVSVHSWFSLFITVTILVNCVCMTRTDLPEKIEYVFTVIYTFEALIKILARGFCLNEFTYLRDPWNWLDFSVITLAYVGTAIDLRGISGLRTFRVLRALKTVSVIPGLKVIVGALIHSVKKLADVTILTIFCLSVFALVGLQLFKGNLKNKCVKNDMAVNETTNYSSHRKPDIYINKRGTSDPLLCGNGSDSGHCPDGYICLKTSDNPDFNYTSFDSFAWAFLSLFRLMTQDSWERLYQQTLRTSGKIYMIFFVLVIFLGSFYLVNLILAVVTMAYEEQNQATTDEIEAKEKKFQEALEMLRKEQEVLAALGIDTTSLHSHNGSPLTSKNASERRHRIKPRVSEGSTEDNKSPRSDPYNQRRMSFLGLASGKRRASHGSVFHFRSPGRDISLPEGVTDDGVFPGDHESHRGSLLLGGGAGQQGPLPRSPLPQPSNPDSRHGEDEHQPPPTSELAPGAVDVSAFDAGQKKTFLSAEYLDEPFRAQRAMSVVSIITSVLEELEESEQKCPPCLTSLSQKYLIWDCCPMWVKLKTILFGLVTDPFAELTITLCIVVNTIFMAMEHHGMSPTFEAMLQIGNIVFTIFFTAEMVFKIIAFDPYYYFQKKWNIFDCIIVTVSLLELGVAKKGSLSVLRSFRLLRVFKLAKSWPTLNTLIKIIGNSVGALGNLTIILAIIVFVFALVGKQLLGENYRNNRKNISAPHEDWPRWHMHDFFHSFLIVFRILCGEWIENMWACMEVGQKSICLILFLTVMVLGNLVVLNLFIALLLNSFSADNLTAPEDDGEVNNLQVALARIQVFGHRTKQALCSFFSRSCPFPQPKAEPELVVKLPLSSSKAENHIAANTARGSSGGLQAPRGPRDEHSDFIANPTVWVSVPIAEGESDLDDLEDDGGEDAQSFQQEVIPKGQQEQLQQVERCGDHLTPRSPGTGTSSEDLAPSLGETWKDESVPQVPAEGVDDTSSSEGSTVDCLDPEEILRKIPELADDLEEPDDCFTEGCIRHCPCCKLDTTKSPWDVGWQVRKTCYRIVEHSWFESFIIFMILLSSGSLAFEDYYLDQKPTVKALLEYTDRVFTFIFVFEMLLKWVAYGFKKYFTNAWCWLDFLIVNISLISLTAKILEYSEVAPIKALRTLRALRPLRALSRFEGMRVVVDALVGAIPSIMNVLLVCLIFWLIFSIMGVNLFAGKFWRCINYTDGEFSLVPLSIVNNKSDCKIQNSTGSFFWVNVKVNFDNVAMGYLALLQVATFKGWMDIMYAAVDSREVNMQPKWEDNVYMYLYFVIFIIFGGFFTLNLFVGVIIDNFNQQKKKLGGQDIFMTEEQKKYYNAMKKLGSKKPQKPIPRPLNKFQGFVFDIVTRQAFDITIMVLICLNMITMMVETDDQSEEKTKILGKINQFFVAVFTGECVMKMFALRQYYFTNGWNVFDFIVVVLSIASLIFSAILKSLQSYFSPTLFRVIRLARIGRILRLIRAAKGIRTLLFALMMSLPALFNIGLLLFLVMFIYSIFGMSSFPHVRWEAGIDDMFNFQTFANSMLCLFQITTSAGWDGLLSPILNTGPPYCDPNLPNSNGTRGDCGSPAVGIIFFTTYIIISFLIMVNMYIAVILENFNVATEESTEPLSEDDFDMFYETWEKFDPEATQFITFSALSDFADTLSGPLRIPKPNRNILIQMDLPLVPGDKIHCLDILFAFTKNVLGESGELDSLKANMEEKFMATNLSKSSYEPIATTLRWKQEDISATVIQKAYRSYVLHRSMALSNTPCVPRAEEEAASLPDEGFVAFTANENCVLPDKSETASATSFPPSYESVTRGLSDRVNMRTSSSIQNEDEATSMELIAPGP

Row | SMILES | IC50
1 | Cc1ccccc1C(C)N1CC2CC1CN2C(=O)Nc1ccc(OCCN2CCOCC2)cc1 (stereo not shown) [Example 44, 5-(1-o-Tolyl-ethyl)-2,5-diaza-bicyclo[2.2.1]heptane-2-carboxylic acid [4-(2-morpholin-4-yl-ethoxy)-phenyl]-amide] | 26800 nM
2 | Cc1ccccc1C(C)N1CC2CC1CN2C(=O)Nc1ccc(OCCc2ccccn2)cc1 (stereo not shown) [Example 45, 5-(1-o-Tolyl-ethyl)-2,5-diaza-bicyclo[2.2.1]heptane-2-carboxylic acid [4-(2-pyridin-2-yl-ethoxy)-phenyl]-amide] | 3270 nM
3 | CC(c1ccc(F)cc1)N1CC2CC1CN2C(=O)Nc1ccc(C(F)(F)F)cc1 (stereo not shown) [Example 46, 5-[1-(4-Fluoro-phenyl)-ethyl]-2,5-diaza-bicyclo[2.2.1]heptane-2-carboxylic acid (4-trifluoromethyl-phenyl)-amide] | 1310 nM
4 | CC(c1ccc(F)cc1)N1CC2CC1CN2C(=O)Nc1cccc(C(F)(F)F)c1 (stereo not shown) [Example 47, 5-[1-(4-Fluoro-phenyl)-ethyl]-2,5-diaza-bicyclo[2.2.1]heptane-2-carboxylic acid (3-trifluoromethyl-phenyl)-amide] | 2610 nM
5 | CC(c1ccc(F)cc1)N1CC2CC1CN2C(=O)Nc1ccc(Oc2ccccc2)cc1 (stereo not shown) [Example 48, 5-[1-(4-Fluoro-phenyl)-ethyl]-2,5-diaza-bicyclo[2.2.1]heptane-2-carboxylic acid (4-phenoxy-phenyl)-amide] | 420 nM
6 | CC(c1ccc(F)cc1)N1CC2CC1CN2C(=O)Nc1cccc(Oc2ccccc2)c1 (stereo not shown) [Example 49, 5-[1-(4-Fluoro-phenyl)-ethyl]-2,5-diaza-bicyclo[2.2.1]heptane-2-carboxylic acid (3-phenoxy-phenyl)-amide] | 1080 nM
7 | CC(c1ccc(F)cc1)N1CC2CC1CN2C(=O)Nc1cccc(C(F)(F)F)c1 (stereo not shown) [Example 50, 5-[1-(4-Fluoro-phenyl)-ethyl]-2,5-diaza-bicyclo[2.2.1]heptane-2-carboxylic acid (3-trifluoromethyl-phenyl)-amide] | 2620 nM
8 | CC(c1ccc(F)cc1)N1CC2CC1CN2C(=O)Nc1ccc(Oc2ccccc2)cc1 (stereo not shown) [Example 51, 5-[1-(4-Fluoro-phenyl)-ethyl]-2,5-diaza-bicyclo[2.2.1]heptane-2-carboxylic acid (4-phenoxy-phenyl)-amide] | 410 nM
9 | CC(c1ccc(F)cc1)N1CC2CC1CN2C(=O)Nc1cccc(Oc2ccccc2)c1 (stereo not shown) [Example 52, 5-[1-(4-Fluoro-phenyl)-ethyl]-2,5-diaza-bicyclo[2.2.1]heptane-2-carboxylic acid (3-phenoxy-phenyl)-amide] | 900 nM
10 | CC(c1ccc(F)cc1)N1CC2CC1CN2C(=O)Nc1ccc(C(F)(F)F)cc1 (stereo not shown) [Example 53, 5-[1-(4-Fluoro-phenyl)-ethyl]-2,5-diaza-bicyclo[2.2.1]heptane-2-carboxylic acid (4-trifluoromethyl-phenyl)-amide] | 2500 nM
11 | CC(c1ccccc1C(F)(F)F)N1CC2CC1CN2C(=O)Nc1cccc(C(F)(F)F)c1 (stereo not shown) [Example 55, 5-[1-(2-Trifluoromethyl-phenyl)-ethyl]-2,5-diaza-bicyclo[2.2.1]heptane-2-carboxylic acid (3-trifluoromethyl-phenyl)-amide] | 4240 nM
12 | CC(c1ccccc1C(F)(F)F)N1CC2CC1CN2C(=O)Nc1cccc(C(F)(F)F)c1 (stereo not shown) [Example 57, 5-[1-(2-Trifluoromethyl-phenyl)-ethyl]-2,5-diaza-bicyclo[2.2.1]heptane-2-carboxylic acid (3-trifluoromethyl-phenyl)-amide] | 5130 nM
13 | Cc1ccccc1CC(C)N1CC2CC1CN2C(=O)Nc1ccc(Oc2ccccc2)cc1 (stereo not shown) [Example 58, 5-(1-Methyl-2-o-tolyl-ethyl)-2,5-diaza-bicyclo[2.2.1]heptane-2-carboxylic acid (4-phenoxy-phenyl)-amide] | 230 nM
14 | Cc1ccccc1CC(C)N1CC2CC1CN2C(=O)Nc1ccc(C(F)(F)F)cc1 (stereo not shown) [Example 59, 5-(1-Methyl-2-o-tolyl-ethyl)-2,5-diaza-bicyclo[2.2.1]heptane-2-carboxylic acid (4-trifluoromethyl-phenyl)-amide] | 750 nM
15 | CC(c1ccccc1C(F)(F)F)N1CC2CC1CN2C(=O)Nc1cccc(Oc2ccccc2)c1 (stereo not shown) [Example 61, 5-[1-(2-Trifluoromethyl-phenyl)-ethyl]-2,5-diaza-bicyclo[2.2.1]heptane-2-carboxylic acid (3-phenoxy-phenyl)-amide] | 4640 nM
16 | CC(c1ccccc1C(F)(F)F)N1CC2CC1CN2C(=O)Nc1cccc(Oc2ccccc2)c1 (stereo not shown) [Example 63, 5-[1-(2-Trifluoromethyl-phenyl)-ethyl]-2,5-diaza-bicyclo[2.2.1]heptane-2-carboxylic acid (3-phenoxy-phenyl)-amide] | 6100 nM
17 | Cc1cc(F)ccc1C(C)N1CC2CC1CN2C(=O)Nc1ccc(Oc2ccccc2)cc1 (stereo not shown) [Example 64, 5-[1-(4-Fluoro-2-methyl-phenyl)-ethyl]-2,5-diaza-bicyclo[2.2.1]heptane-2-carboxylic acid (4-phenoxy-phenyl)-amide] | 270 nM
18 | Cc1cc(F)ccc1C(C)N1CC2CC1CN2C(=O)Nc1ccc(C(F)(F)F)cc1 (stereo not shown) [Example 65, 5-[1-(4-Fluoro-2-methyl-phenyl)-ethyl]-2,5-diaza-bicyclo[2.2.1]heptane-2-carboxylic acid (4-trifluoromethyl-phenyl)-amide] | 600 nM
19 | Cc1ccccc1C(C)N1CC2CC1CN2C(=O)Nc1ccc(C(=O)c2ccccc2)cc1 (stereo not shown) [Example 66, 5-(1-o-Tolyl-ethyl)-2,5-diaza-bicyclo[2.2.1]heptane-2-carboxylic acid (4-benzoyl-phenyl)-amide] | 720 nM
20 | Cc1ccccc1CC(C)N1CC2CC1CN2C(=O)Nc1cccc(C(F)(F)F)c1 (stereo not shown) [Example 67, 5-(1-Methyl-2-o-tolyl-ethyl)-2,5-diaza-bicyclo[2.2.1]heptane-2-carboxylic acid (3-trifluoromethyl-phenyl)-amide] | 1220 nM
21 | Cc1ccccc1C(C)N1CC2CC1CN2C(=O)Nc1ccc(C(O)c2ccccc2)cc1 (stereo not shown) [Example 68, 5-(1-o-Tolyl-ethyl)-2,5-diaza-bicyclo[2.2.1]heptane-2-carboxylic acid [4-(hydroxy-phenyl-methyl)-phenyl]-amide] | 6150 nM
22 | Cc1ccccc1C(C)N1CC2CC1CN2C(=O)NC(C)c1ccc(F)cc1 (stereo not shown) [Example 69, 5-(1-o-Tolyl-ethyl)-2,5-diaza-bicyclo[2.2.1]heptane-2-carboxylic acid [1-(4-fluoro-phenyl)-ethyl]-amide] | 17100 nM
23 | Cc1ccccc1CC(C)N1CC2CC1CN2C(=O)NC(C)c1ccc(F)cc1 (stereo not shown) [Example 70, 5-(1-Methyl-2-o-tolyl-ethyl)-2,5-diaza-bicyclo[2.2.1]heptane-2-carboxylic acid [1-(4-fluoro-phenyl)-ethyl]-amide] | 5080 nM
24 | Cc1cc(F)ccc1C(C)N1CC2CC1CN2C(=O)Nc1ccc(C(=O)c2ccccc2)cc1 (stereo not shown) [Example 71, 5-[1-(4-Fluoro-2-methyl-phenyl)-ethyl]-2,5-diaza-bicyclo[2.2.1]heptane-2-carboxylic acid (4-benzoyl-phenyl)-amide] | 2360 nM
25 | Cc1cc(F)ccc1C(C)N1CC2CC1CN2C(=O)Nc1ccc(C(=O)c2ccccc2)cc1 (stereo not shown) [Example 72, 5-[1-(4-Fluoro-2-methyl-phenyl)-ethyl]-2,5-diaza-bicyclo[2.2.1]heptane-2-carboxylic acid (4-benzoyl-phenyl)-amide] | 2260 nM
26 | Cc1cc(F)ccc1C(C)N1CC2CC1CN2C(=O)Nc1ccc(Oc2ccc(F)cc2)cc1 (stereo not shown) [Example 75, 5-[1-(4-Fluoro-2-methyl-phenyl)-ethyl]-2,5-diaza-bicyclo[2.2.1]heptane-2-carboxylic acid [4-(4-fluoro-phenoxy)-phenyl]-amide] | 570 nM
27 | O=C(Nc1ccc(C(F)(F)F)cc1)N1CC2CC1CN2C1CCc2ccccc2C1 (stereo not shown) [Example 77, 5-(1,2,3,4-Tetrahydro-naphthalen-2-yl)-2,5-diaza-bicyclo[2.2.1]heptane-2-carboxylic acid (4-trifluoromethyl-phenyl)-amide] | 590 nM

same assay, conditions: hNav1.8 IC50, SH-SY-5Y hNav1.8 cells; FLIPR membrane potential dye; 10 μM pyrethroid, 250 nM TTX; test concentration range 100 μM-0.05 μM

Row | SMILES | IC50
28 | Cc1ccccc1C(C)N1CC2CC1CN2C(=O)Nc1ccc(Oc2ccc(F)cc2)cc1 (stereo not shown) [Example 78, 5-(1-o-Tolyl-ethyl)-2,5-diaza-bicyclo[2.2.1]heptane-2-carboxylic acid [4-(4-fluoro-phenoxy)-phenyl]-amide fumarate salt] | 230 nM

From patent US20100204224A1, “AZACYCLIC COMPOUNDS AS INHIBITORS OF SENSORY NEURONE SPECIFIC SODIUM CHANNELS” (priority 2005, published 2010)
